Assay results from ChEMBL document CHEMBL5131389, “PSMA-targeted small-molecule docetaxel conjugate: Synthesis and preclinical evaluation” (Eur J Med Chem, 2022).
Where “and” joins values, the source holds several entries; their conditions need not be identical. Identical values can stand only once. Calls of active or inactive are those of the source. The rule behind the calls is not given here.

Columns and labels:
[1] = Chronic toxicity in rat assessed as increase in relative kidney weight at 18.75 mg/kg, iv administered as pluronic F127 formulation at 4 intervals for 21 days and observed 3 weeks post last injection; format: organism-based; conditions: in vivo, 2544 h, time 106 day
[2] = Selectivity ratio of CC50 for cytotoxicity against human PC-3 cells to CC50 for cytotoxicity against human 22Rv1 cells
CWR22R [3] = assay: Effect on cell stiffness in human 22Rv1 cells assessed as increase in young's modulus at 2.7 nM measured after 1 hr by topography based scanning ion-conductance microscopic analysis; format: functional
CWR22R [4] = assay: Antitumor activity against human 22Rv1 cells xenografted in Balb/c nude mouse assessed as tumor growth inhibition at 30 mg/kg, ip administered daily for 5 days and measured at day 34 relative to control; format: functional; parameters: scale not given: the % may be the effect or the level left; conditions: time 34 day
CWR22R [5] = assay: Antitumor activity against human 22Rv1 cells xenografted in Balb/c nude mouse assessed as tumor growth inhibition at 20 mg/kg, ip administered once in two days for three times and measured 1 day after the end of treatment relative to control; format: functional; conditions: 22Rv1, 168 h, time 7 day, read-out: TGI
[6] = Toxicity in Balb/c nude mouse xenografted with human 22Rv1 cells assessed as animal death at 20 mg/kg, ip measured upto 30 days; format: organism-based, CWR22R; conditions: in vivo, 720 h, time < 30 day
DU-145 [7] = assay: Antitumor activity against human DU-145 cells xenografted in BALB/c nude mouse assessed as tumor growth inhibition at 30 mg/kg, ip measured upto 30 days; format: functional; conditions: DU-145, 720 h, time <= 30 day, read-out: TGI
DU-145 [8] = assay: Antitumor activity against human DU-145 cells xenografted in BALB/c nude mouse assessed as tumor growth inhibition at 60 mg/kg, ip measured upto 30 days; format: functional; conditions: DU-145, 720 h, time <= 30 day, read-out: TGI
[9] = Chronic toxicity in Soviet Chinchilla rabbit assessed as decrease in body weight at 8.14 mg/kg, iv administered as pluronic F127 formulation at 4 intervals for 21 days and observed 3 weeks post last injection; format: organism-based, Oryctolagus cuniculus; conditions: in vivo, 2544 h, time 106 day
[10] = Acute toxicity in ICR mouse assessed as animal death at 183 to 960 mg/kg, iv administered for 14 days as pluronic F127 formulation and measured after 5 days; format: organism-based; conditions: in vivo, 456 h, dose 183-960 mg/kg, time 19 day
[11] = Acute toxicity in Wistar rat assessed as animal death at 15 to 279 mg/kg, iv administered for 14 days as pluronic F127 formulation and measured after 3 days; format: organism-based; conditions: in vivo, 408 h, dose 15-279 mg/kg, time 17 day
[12] = Acute toxicity in Wistar rat assessed as violation of motor activity in hind limb administered intravenously as pluronic F127 formulation and measured for 14 days; conditions: in vivo, iv, 336 h, dose 15-279 mg/kg, time 14 day
[13] = Acute toxicity in Wistar rat assessed as decrease in body weight administered intravenously as pluronic F127 formulation and measured for 14 days; conditions: in vivo, iv, 336 h, dose 15-279 mg/kg, time 14 day
[14] = Acute toxicity in ICR mouse assessed as coprostasis at 183 to 960 mg/kg, iv administered as pluronic F127 formulation and measured for 14 days; format: organism-based; conditions: in vivo, 336 h, dose 183-960 mg/kg, time 14 day
[15] = Acute toxicity in Wistar rat assessed as liver damage at 15 to 279 mg/kg, iv administered as pluronic F127 formulation and measured for 14 days; format: organism-based; conditions: in vivo, 336 h, dose 15-279 mg/kg, time 14 day
[16] = Acute toxicity in ICR mouse assessed as lethal dose administered intravenously as pluronic F127 formulation and measured for 14 days; conditions: in vivo, route iv, time 14 day
[17] = AUC (0 to t) in Albino Wistar rat at 15 mg/kg, iv administered as pluronic F127 formulation measured upto 72 hrs by high-performance liquid chromatography tandem mass spectrometric analysis; format: ADME, organism-based; parameters: dose 15 mg/kg, time < 72 hrs, route iv; conditions: in vivo
[18] = Clearance in Albino Wistar rat at 15 mg/kg, iv administered as pluronic F127 formulation measured upto 72 hrs by high-performance liquid chromatography tandem mass spectrometric analysis; format: ADME, organism-based; conditions: in vivo
[19] = Subchronic toxicity in Wistar rat assessed as cumulative effect of drug at 58 mg/kg, iv administered as pluronic F127 formulation daily for 28 days; format: organism-based; conditions: in vivo, 672 h, time 28 day
[20] = Subchronic toxicity in Wistar rat assessed as decrease in body weight at 58 mg/kg, iv administered as pluronic F127 formulation daily for 28 days; format: organism-based; conditions: in vivo, 672 h, time 28 day
[21] = Chronic toxicity in rat assessed as reduction in grooming frequency at 22.5 mg/kg, iv administered as pluronic F127 formulation at 4 intervals for 21 days and observed 3 weeks post last injection; format: organism-based; conditions: in vivo, 2544 h, time 106 day
[22] = Chronic toxicity in rat assessed as hair loss at 22.5 mg/kg, iv administered as pluronic F127 formulation at 4 intervals for 21 days and observed 3 weeks post last injection; format: organism-based; conditions: in vivo, 2544 h, time 106 day
[23] = Chronic toxicity in rat assessed as hair loss at 15 to 18.45 mg/kg, iv administered as pluronic F127 formulation at 4 intervals for 21 days and observed 3 weeks post last injection; format: organism-based; conditions: in vivo, 2544 h, dose 15-18.45 mg/kg, time 106 day
[24] = Chronic toxicity in rat assessed as change in alkaline phosphatase level at 18.75 to 22.5 mg/kg, iv administered as pluronic F127 formulation at 4 intervals for 21 days and observed 3 weeks post last injection; format: organism-based; conditions: in vivo, 2544 h, dose 18.75-22.5 mg/kg, time 106 day
[25] = Chronic toxicity in rat assessed as change in volume of excreted urine at 15 mg/kg, iv administered as pluronic F127 formulation at 4 intervals for 21 days and observed 3 weeks post last injection; format: organism-based; conditions: in vivo, 2544 h, time 106 day
[26] = Chronic toxicity in rat assessed as increase in relative brain mass administered intravenously as pluronic F127 formulation at 4 intervals for 21 days and observed 3 weeks post last injection relative to control; format: tissue-based; conditions: in vivo, iv, 2544 h, time 106 day
[27] = Chronic toxicity in rat assessed as increase in relative mass of stomach administered intravenously as pluronic F127 formulation at 4 intervals for 21 days and observed 3 weeks post last injection relative to control; format: tissue-based; conditions: in vivo, iv, 2544 h, time 106 day
[28] = Chronic toxicity in rat assessed as increase in relative mass of pancreas administered intravenously as pluronic F127 formulation at 4 intervals for 21 days and observed 3 weeks post last injection relative to control; format: tissue-based; conditions: in vivo, iv, 2544 h, time 106 day
[29] = Chronic toxicity in Soviet Chinchilla rabbit assessed as animal death administered intravenously as pluronic F127 formulation at 4 intervals for 21 days and observed 3 weeks post last injection; parameters: species or system Oryctolagus cuniculus; conditions: in vivo, iv, 2544 h, time 106 day
[30] = Chronic toxicity in Soviet Chinchilla rabbit assessed as urine alkalization at 10.17 to 12.21 mg/kg, iv administered as pluronic F127 formulation at 4 intervals for 21 days and observed 3 weeks post last injection; format: organism-based, Oryctolagus cuniculus; conditions: in vivo, 2544 h, dose 10.17-12.21 mg/kg, time 106 day
[31] = Chronic toxicity in Soviet Chinchilla rabbit assessed as increase in relative pancreas mass at 8.14 to 12.21 mg/kg, iv administered as pluronic F127 formulation at 4 intervals for 21 days and observed 3 weeks post last injection; format: organism-based, Oryctolagus cuniculus; conditions: in vivo, 2544 h, dose 8.14-12.21 mg/kg, time 106 day

## CC(=O)O[C@@]12CO[C@@H]1C[C@H](O)[C@@]1(C)C(=O)[C@H](O)C3=C(C)[C@@H](OC(=O)[C@H](OC(=O)CCCc4cn(CCCNC(=O)[C@H](Cc5ccc(O)cc5)NC(=O)[C@H](Cc5ccccc5)NC(=O)CCC(=O)NCCCCCC(=O)N(CCCC[C@H](NC(=O)N[C@@H](CCC(=O)O)C(=O)O)C(=O)O)Cc5cccc(Cl)c5)nn4)[C@@H](NC(=O)OC(C)(C)C)c4ccccc4)C[C@@](O)([C@@H](OC(=O)c4ccccc4)[C@H]21)C3(C)C
[1]
  Activity: Toxic
[2]
  Selectivity ratio: 1
CWR22R [3]
  Activity: Active
CWR22R [4]
  Activity: 80%
CWR22R [5]
  inhibition in vivo at 20 mg/kg: 78%
[6]
  Activity: Non-Toxic
DU-145 [7]
  inhibition in vivo at 30 mg/kg: 81.7%
DU-145 [8]
  inhibition in vivo at 60 mg/kg: 83.7%
[9]
  Activity: Toxic
[10]
  Activity: Toxic
[11]
  Activity: Toxic
[12]
  Activity: Toxic
[13]
  Activity: Toxic
[14]
  Activity: Toxic
[15]
  Activity: Toxic
[16]
  LD50 at 336 h: 409 mg/kg and 210 µmol/kg
[17]
  AUC(0-t) at 72 h: 28000 ng·h/mL
[18]
  clearance: 9.15 mL/min/kg
[19]
  Activity: Toxic
[20]
  Activity: Toxic
[21]
  Activity: Toxic
[22]
  Activity: Toxic
[23]
  Activity: Non-Toxic
[24]
  Activity: Non-Toxic
[25]
  Activity: Non-Toxic
[26]
  Activity: Toxic
[27]
  Activity: Toxic
[28]
  Activity: Toxic
[29]
  Activity: Non-Toxic
[30]
  Activity: Toxic
[31]
  Activity: Toxic
